ChEMBL document CHEMBL3297673, “Antifungal amphidinol 18 and its 7-sulfate derivative from the marine dinoflagellate Amphidinium carterae” (J Nat Prod, 2014)
≈ marks a conversion by molar mass, not a printed value. Calls of active or inactive are those of the source. No cut-off for these calls is given here.

Tests used:
Candida albicans = test: Antifungal activity against Candida albicans after 48 hrs by broth microdilution method; type: functional
[1] = Toxicity in erythrocytes (unknown origin) assessed as hemolytic activity; type: cell-based; details: erythrocyte

Structure (SMILES)	MIC (Candida albicans) [µg/mL]	Activity [1]	Activity (Candida albicans)
C=C/C=C/CC/C=C/C=C/C=C/CC/C=C/[C@H](O)[C@H](O)[C@@H]1O[C@@H]([C@H](O)[C@H](O)C(=C)CC[C@@H](O)[C@H]2C[C@@H](O)[C@@H](O)[C@H]([C@@H](O)[C@H](O)/C=C(\C)CCC(O)CC(O)C(O)C(C)CC(O)C(O)CC(C)CCC(O)CC(=O)CC(O)CCCC(O)CCCCC(O)CO)O2)C[C@@H](O)[C@H]1O (some centres undefined)	9 (≈ 6.62 µM)	Toxic	–
C=C/C=C/CC/C=C/C=C/C=C/CC/C=C/[C@H](O)[C@H](O)[C@@H]1O[C@@H]([C@H](O)[C@H](O)C(=C)CC[C@@H](O)[C@H]2C[C@@H](O)[C@@H](O)[C@H]([C@@H](O)[C@H](O)/C=C(\C)CCC(O)CC(O)C(O)C(C)CC(O)C(O)CC(C)CCC(O)CC(=O)CC(O)CCCC(CCCCC(O)CO)OS(=O)(=O)[O-])O2)C[C@@H](O)[C@H]1O.[Na+] (some centres undefined)	–	Toxic	inactive
